The values that follow come from patent US9456589B2, “Elasmobranch-repelling compounds and methods of use” (priority 2005, dated 2016).

What all share (format): in vivo
Assay [1] relates to juvenile lemon and nurse sharks. Kind of assay: Tonic immobility, Micropipette Assay, summary over species. Particulars: for Micropipette Y (termination of tonic immobility), trials of trials: oral dose; for screening result: lemon and nurse sharks. The method, then:
(§1) One bioassay used to observe and measure flight response is the tonic immobility test. Tonic immobility is a state of paralysis that typically occurs when a shark is subject to inversion of its body along the longitudinal axis. This state is called “tonic,” and the shark can remain in this state for up to 15 minutes thereby allowing researchers to observe effects of chemical repellents. The “tonic” state of the shark is first established by releasing seawater in proximity to the “tonic” shark with the same delivery instrument and at the same distance as a “test” repellent compound will be released. Some controls are released with a high flow rate (30 mL/sec) in order to establish that sharks are not awakened by a jet of fluid over their noses. Once behavioral controls are established, a compound or composition that may have a repelling effect is delivered to the shark. If the compound or composition engenders a flight response, the shark will awaken from the tonic state and rapidly attempt to flee the delivered repellent. Using this tonic immobility bioassay researches can quantify the strength of a repellent effect.
A fourth method of delivery was called the “Micropipette Assay” method of delivery. In this method, a very small dose (fraction of a mL) of a test substance was delivered directly into a shark's mouth. […] A response, such as a cough or other notable action of the shark, was usually noted when effective gustatory repellents were delivered directly into a shark's mouth while in tonic immobility.
The Micropipette Assay method has not proven to be a particularly effective method of assaying for a flight response in elasmobranchs. The Micropipette Assay method is, nevertheless, an excellent method for specifying that a gustatory response has occurred. It is effective for specifying a gustatory response because the micropipette delivery method allows direct delivery of an entire bolus of test substance into the mouth of the shark being tested.
An oral dose of no more than 400 microliters was then delivered by micropipette into the mouth of a juvenile nurse shark. Tonic immobility was terminated. For each derivative of butyric acid and each naturally occurring acid listed in Table 9, a first micropipette assay was performed on a juvenile lemon shark with no more than 100 microliters of test acid in an oral dose. A second micropipette assay was then performed on a juvenile nurse shark with no more than 400 microliters of test acid in an oral dose. In each test, tonic immobility was terminated.
In a first set of studies on the effectiveness of carboxylic acids as elasmobranch repellents, each tested substance was subjected to the following protocol. […] An oral dose of no more than 400 microliters was then delivered by micropipette into the mouth of a juvenile nurse shark. Tonic immobility was terminated. […] The data evidences the gustatory repelling activity of carboxylic acids.

Assay [2] concerns sharks (lemon, nurse, tiger pooled). Kind of assay: Tonic immobility, Hd Syringe Assay, summary over species. Particulars: for lowest volume of repellent that terminated tonic immobility: Hd Syringe, lemon and nurse sharks; for Hd-Syringe Y (termination of tonic immobility), trials of trials: species pooled. The protocol: as §1
In Hd-Syringe Assays, the 3-methylbutanal was delivered to the shark's mouth and nares using a 3 mL hypodermic syringe fitted with a 22 gauge needle. The needle was held within 3 inches of the shark's mouth and the test repellent was slowly released from the syringe with a very fine plume in the water column. Any response was denoted. If a response occurred during a measurable time after delivery of the test chemical, the time between delivery and response was noted. If a response occurred immediately or the response occurred before a measurable time could be established, no time to response was noted.

The subject of the next assay is sharks (species pooled). The assay can be described thus: Tonic immobility, total of delivery methods not including Micropipette assays. To be noted: species and delivery methods pooled. The protocol:
as §1
Table 1, which summarizes the data in Tables 14 and 15, evidences the gustatory repellent characteristics of methylbutanals. In 35 of 36 assays (combining columns “Y” and “R” under the column labeled “Total (Not including Micropipette Assays)” to arrive at a 97% effectiveness rate), including assays on lemon, nurse, tiger and blacktip sharks, the gustatory repellent activity of 3-methylbutanal was established. In 81% of assays, tonic immobility was fully terminated. […] In only a single assay did a shark not respond to treatment with 3-methylbutanal.

Assay [3] relates to sharks (lemon, nurse, blacknose, blacktip pooled). Kind of assay: Tonic immobility, Syringe Assay, summary over species. The protocol:
as §1
A second delivery method called the “Syringe Assay” method delivered a dose of 60 mL or more of a test chemical repellent from at least one foot, and up to as many as five feet, from a shark. The distance of delivery was determined based on the strength of the water current in the direction of the shark. Time from delivery of the test substance until response was observed, measured and recorded. The “Syringe” method allows a researcher to observe how a diffusing and diluting cloud of test chemical repellent affects the shark's behavior when the shark encounters the delivered cloud of test substance. The “Syringe” method requires relatively large doses because of the diffusion of the cloud over time and distance. Time from delivery to response is related to the size of the bolus delivered from the syringe, distance of the shark from the syringe and water current.
In the Syringe assay about 60 mL or more of valeraldehyde was delivered from one to as many as five feet from the shark depending on the water current. […] Time from delivery to response was related to the size of the bolus delivered from the syringe, distance of the shark from the syringe and water current.

Assay [4] has as its system sharks (lemon, nurse, blacktip, tiger, blacknose pooled). Kind of assay: Tonic immobility, Syringe 3/5/10 Assay, summary over species. The protocol:
as §1
In the tonic immobility studies disclosed herein, several different methods were employed for delivery of repelling compounds. A first method for delivery of chemical repellent in tonic immobility studies employed a “Syringe 3/5/10 Assay” method. The “Syringe 3/5/10 Assay” method is so named because a test repellent is delivered to a shark from a distance of about “3” inches with a bolus of about “5” mL with a response to the test repellent considered positive if the shark reacts with a change in behavior within less than about “10” seconds from the time of delivery.
The “3/5/10 Syringe Assay” as employed herein delivered a dose of 5-6 mL of a test chemical repellent from a syringe fixed with a needle having a gauge of about 22 from a distance at least 3 inches in front of a shark. Because the test chemical repellent was delivered at a distance from the shark's nares and mouth, a cloud of test chemical repellent was dispersed over the shark within the water column. The dispersed test repellent was subject to water current direction, dispersion and dilution. As a result, a flight response within 10 seconds was considered a positive repellency response. […] Time from delivery to response is related to the size of the bolus delivered from the syringe, distance of the shark from the syringe and water current.
In Syringe 3/5/10 Assays, 5-6 mL of 3-methylbutanal was delivered at least 3 inches in front of the shark's mouth. A cloud of the repellent dispersed over the shark within the water column. […] As noted above, because the dispersion of the chemical repellent upon delivery is affected by volume of repellent, water current, and other factors, the time between delivery and response was not correlatable with the potency of the repellent.

The mark [5] stands for this setting: juvenile lemon and nurse sharks.

Where “and” joins values, the source holds several entries; their conditions need not be identical. Identical values can stand only once. Entries after “also recorded” stand apart in the source; their conditions may differ. Like-named read-outs stand apart in the source and are kept apart here.

For `CCC(C)(C)C(=O)O` [2,2-Dimethylbutyric Acid], the “Micropipette Y (termination of tonic immobility), trials of trials” value (“Micropipette Y” for short) in assay [1] (setting [5]) is reported as 2/2. Besides, the screening result in assay [1] was “repellents”.
In the case of `CC(C)C(C)C(=O)O` (stereo not shown) [2,3-Dimethylbutyric Acid], the “Micropipette Y” value in assay [1] (setting [5]) is listed as 2/2. Moreover, the screening result in assay [1] is “repellents”.
As to `CCC(CC)C(=O)O` [2-Ethylbutyric Acid], the “Micropipette Y” value in assay [1] (setting [5]) is given as 2/2. The screening result in assay [1] is “repellents”.
The like results for `CCC(=O)C(=O)O` [2-Ketobutyric Acid] were, in that order, 2/2 and “repellents”.
For `CCC(C)C=O` (stereo not shown) [2-methylbutanal], in assay [2], the “lowest volume of repellent that terminated tonic immobility” value (“lowest volume” for short) turned out to be 200 µL; the “Hd-Syringe Y (termination of tonic immobility), trials of trials” value (from here on “Hd-Syringe Y”) was “In each assay tonic immobility was terminated and five of five and 5/5”. Besides, the “Total (Not including Micropipette assays / Effective Delivery Methods) Y, trials of trials” value with sharks (species pooled) was 5/5.
Turning to `CC=C(C)C=O` [2-methylbutenal], the “lowest volume” value in assay [2] was 300 µL. Moreover, the “Hd-Syringe Y” value is “All assays resulted in termination of tonic immobility and four of four and 4/4” in assay [2]; 4/4 in assay [2] (listed as 2-Methylbutenal).
`CC(N)CC(=O)O` (stereo not shown) [3-Aminobutyric Acid]: in assay [1] (setting [5]), the “Micropipette Y” value was 2/2. The screening result in assay [1] is reported as “repellents”.
On to `C=CCC(=O)O` [3-Butenoic Acid (vinylacetic acid), 3-Butenoic Acid], for which the “Micropipette Y” value in assay [1] (setting [5]) is recorded as 2/2. The screening result in assay [1] is given as “shark repelling compounds”.
As for `CC(C)=CC=O` [3-methylbutenal], in assay [2], the “lowest volume” value was 350 µL; the “Hd-Syringe Y” value is “All assays resulted in termination of tonic immobility and four of four and 4/4”. Besides, the “Hd-Syringe Y” value in assay [2] (listed as 3-Methylbutenal) was 4/4.
With `CC(=O)CCCC(=O)O` [4-Acetylbutyric Acid], the “Micropipette Y” value in assay [1] (setting [5]) was 2/2. Also, the screening result in assay [1] is listed as “repellents”.
In the case of `COc1ccc(C=O)cc1` [Anisaldehyde, anisaldehyde], in assay [3], the “Syringe Y (termination of tonic immobility), trials of trials” value is 1/1.
On to `CCCCCC=O` [Capronaldehyde, capronaldehyde], for which the “Syringe Y (termination of tonic immobility), trials of trials” value in assay [3] was 1/1. In the assay with sharks (species pooled), the “Total (Not including Micropipette assays / Effective Delivery Methods) Y, trials of trials” value is on record as 1/1 and the “Total Y, percent of trials” value is 100%.
With `O=C/C=C/c1ccccc1` [Cinnimaldehyde, trans-cinnimaldehyde], the “Syringe Y (termination of tonic immobility), trials of trials” value is 2/2 in assay [3], “two of two” in assay [3] (listed as cinnimaldehyde) and “resulted in termination of tonic immobility” in assay [3] (listed as trans-cinnimaldehyde). Moreover, the “Total (Not including Micropipette assays / Effective Delivery Methods) Y, trials of trials” value with sharks (species pooled) is given as 2/2.
With `O=C(O)CC(O)C(=O)O` (stereo not shown) [Hydroxysuccinic Acid], the “Micropipette Y” value in assay [1] (setting [5]) is 2/2.
On to `CC(C)C=O` [Isobutyraldehyde, isobutyraldehyde], for which the “Syringe Y (termination of tonic immobility), trials of trials” value in assay [3] is reported as 4/4; in assay [3] (listed as isobutyraldehyde), “All resulted in termination of tonic immobility”. Also, the “Total (Not including Micropipette assays / Effective Delivery Methods) Y, trials of trials” value in the assay on sharks (species pooled) is 4/4. In the assay with sharks (species pooled), the “Total Y, percent of trials” value amounted to 100%.
As for `CCC=O` [Propionaldehyde, propionaldehyde], the “Syringe Y (termination of tonic immobility), trials of trials” value in assay [3] is 4/4. Also, the “Syringe Y (termination of tonic immobility), trials of trials” value in assay [3] (listed as propionaldehyde) is “All resulted in termination of tonic immobility”. Moreover, in the assay on sharks (species pooled), the “Total (Not including Micropipette assays / Effective Delivery Methods) Y, trials of trials” value is given as 4/4 and the “Total Y, percent of trials” value was determined as 100%.
`CC/C=C/C=O` [Trans-pentenal, trans-pentenal]: the “Hd-Syringe Y” value in assay [2] and in assay [2] (listed as Pentenal) was 5/5 each time. Further, the “Total (Not including Micropipette assays / Effective Delivery Methods) Y, trials of trials” value with sharks (species pooled) is on record as 5/5.
On to `O=C(O)CC(CC(=O)O)C(=O)O` [Tricarballylic Acid], for which the “Micropipette Y” value in assay [1] (setting [5]) was 2/2.
`CC(C)(C)C=O` [Trimethylacetaldehyde, trimethylacetaldehyde]: the “Hd-Syringe Y” value in assay [2] is 5/5. In assay [3], the “Syringe N (no response), trials of trials” value is reported as 1/2 and the “Syringe Y (termination of tonic immobility), trials of trials” value is recorded as 1/2. Also, the “Micropipette assays with a behavioral response within tonic immobility” value in assay [1] (setting [5]) is given as “change of behavior during tonic immobility”. In the assay with sharks (species pooled), the “Total (Not including Micropipette assays / Effective Delivery Methods) N, trials of trials” value was 1/7; the “Total (Not including Micropipette assays / Effective Delivery Methods) Y, trials of trials” value is 6/7; the “Total Y, percent of trials” value amounted to 100%. Also, the “Total (Not including Micropipette assays / Effective Delivery Methods) Y, trials of trials” value in the assay with sharks (species pooled) (listed as trimethylacetaldehyde) was “resulted in termination of tonic immobility”.
As for `CCCCC=O` [Valeraldehyde, valeraldehyde], the “Hd-Syringe Y” value in assay [2] is 5/5. For the same compound, in assay [3], the “Syringe Y (termination of tonic immobility), trials of trials” value was 1/1. Also, the “Micropipette assays with a gustatory response (termination or behavior change)” value in assay [1] (setting [5]) is listed as “six of six; also recorded: all Micropipette assays showed a response”. In the assay on sharks (species pooled), the “Total (Not including Micropipette assays / Effective Delivery Methods) Y, trials of trials” value was 6/6 and the “Total Y, percent of trials” value is given as 100%. Also, the “Total (Not including Micropipette assays / Effective Delivery Methods) Y, trials of trials” value in the assay with sharks (species pooled) (listed as valeraldehyde) was “terminated tonic immobility; also recorded: six of six”.
In the case of `CC(O)C(=O)O` (stereo not shown) [lactic acid], in assay [4], the “Syringe 3/5/10 N (no response), trials of trials” value is “no behavioral change and 1/3”; the “Syringe 3/5/10 Y (termination of tonic immobility), trials of trials” value was “two of three and 2/3”.
For the compound `O=C(O)/C=C/c1ccccc1` [trans-Cinnamic acid], the “Micropipette Y” value in assay [1] (setting [5]) is 2/2.
